{"source": "patent US12520840B2", "about": "“Method for reducing parasite burden in a mosquito” (PRESIDENT AND FELLOWS OF HARVARD COLLEGE, priority 2018, dated 2026)", "key": {"An. gambiae females": {"test_system": "An. gambiae females", "assay": "Survival assays of An. gambiae females after compound exposure (acute 48 h and long-term)", "assay_type": "in vivo, Anopheles gambiae", "conditions": "for proportionate survival relative to controls: 1 mmol/m2, 60 minutes exposure, 48 h after exposure", "experimental": "(§1) Compound Exposures. Compounds (ATQ, ACE, HYD, PYR, PER, Millipore-Sigma, St. Louis, MO, USA) to be tested were dissolved in a suitable, volatile vehicle (Table S1) at stock concentrations of 3-10 mg/ml (0.3-1% w/v). Working concentrations of each compound were created through serial dilutions. To generate a compound-coated surface, a volume of working solution containing a known quantity of compound was added to 1 ml excess vehicle and transferred to a 6 cm diameter glass petri dish ([…]). Treated dishes were placed on a lateral shaker and left for 4 h or overnight until evaporation of the volatile vehicle, coating the compound to the glass substrate. Control plates were treated identically using only the acetone vehicle. A translucent plastic cup was placed over the coated surface to contain mosquitoes during exposure. A flap was cut into the base of the cup to allow the introduction of mosquitoes. Plates were used for 1 d and discarded. For exposures, 15-25 mosquitoes were introduced through the cup flap using a mouth aspirator and incubated on the treated surface for 6-60 min depending on the experimental parameters. Exposure plates were agitated once during exposure to discourage resting on the untreated walls and base of the cup. After exposure, plates were transferred to a clean 17.5 cm^3 cage (Bugdorm™, Megaview Science. Co. Taiwan).\nSurvival Assays. To assess acute survival following exposure: 40, females were exposed (as described above) to ATQ, PYR, ACE, HYD permethrin (PER) for 1 h at a dosage of 1 mmol/m^2 for each compound. […] Immediately after exposure, each treatment group was transferred to a 500 ml paper cup and provided with glucose. At 48 h post exposure the proportion of surviving mosquitoes in each group was determined. Differences in survival between control and compound-exposed mosquitoes were detected using Chi^2 analysis. For long-term survival, ˜100 ATQ- or control-exposed females were placed in clean 17.5 cm^3 cages (Bugdorm™, Megaview Science. Co., Taiwan). Water and a 10% w/v glucose solution was provided ad libitum. Cages were checked daily for mortality, and dead mosquitos were removed and counted. Each experiment continued until all mosquitoes had died. Differences in median time-to-death between ATQ and control treatment groups were analyzed using a Log-Rank Mantell-Cox test."}, "P. falciparum": {"test_system": "P. falciparum", "assay": "Plasmodium falciparum infection assay in An. gambiae females after tarsal exposure to a compound-coated surface (oocyst prevalence and intensity)", "assay_type": "in vivo, Plasmodium falciparum (NF54) in Anopheles gambiae", "conditions": "for effect on prevalence of P. falciparum relative to controls / reduction of oocyst prevalence relative to controls: 1 mmol/m2, 6 minutes exposure", "experimental": "as §1\nPlasmodium falciparum Infection Assays. 5-d old An. gambiae females were exposed to compounds as described above. Immediately after exposure, females were transferred to a sealed, secure infection glovebox and provided an in vitro culture P. falciparum (NF54) gametocytes (1, 2) through a custom made, glass, water-heated membrane feeder. […] At 7-9 d post infectious blood meal (pIBM), females that had blood fed were vacuum aspirated into 80% ethanol, incubated for 10 minutes at −20° C., and transferred out of the secure feeding box into PBS on ice. Midguts were dissected out in PBS and stained with 0.2% w/v mercurochrome (in ddH2O) for 17 minutes. After staining, midguts were mounted on glass microscope slides in 0.02% w/v mercurochrome, and oocyst prevalence and intensity were determined by examination at 40× air objective on an inverted compound light microscope (Olympus Corporation, Waltham, MA).\nStatistical Analysis. All statistical analyses were carried out using GraphPad Prism v7.0 for MacOSX (GraphPad Software Inc., La Jolla CA, USA). For infections, differences in prevalence were analyzed by Chi^2. In experiments where both treatment groups had individuals that produced >0 oocysts, differences in median oocyst burden between groups (intensity of infection) was analyzed using a Mann-Whitney Mean Ranks test. For multiple comparisons (e.g. FIG. 3) differences in prevalence between multiple groups were determined using pair-wise Chi^2 corrected for multiple comparisons (Bonferroni). Similarly, multiple comparisons of intensity were carried out using Wilcoxon with Dunn's post hoc. To determine IC50 from dose-response data, the mean relative inhibition (ATQ exposed prevalence/Control prevalence) was calculated for each tested dose and fit with a sigmoidal curve function using non-linear regression."}, "[1]": {"test_system": "susceptible An. gambiae mosquitoes", "conditions": "60-minute tarsal exposure; cited from earlier work"}, "[2]": {"conditions": "10 μmol/m^2, 60 minutes exposure"}, "[3]": {"conditions": "1 mmol/m2, 60 minutes exposure immediately prior to infection"}}, "note": "Entries after “also recorded” stand apart in the source; their conditions may differ.", "data": [{"compound": "CC1(C)CNC(=NN=C(/C=C/c2ccc(C(F)(F)F)cc2)/C=C/c2ccc(C(F)(F)F)cc2)NC1", "note": "[HYD, hydramethylnon]", "values": [{"measurement": "proportionate survival relative to controls", "setting": "An. gambiae females", "result": 0.976}, {"measurement": "effect on prevalence of P. falciparum relative to controls", "setting": "P. falciparum", "result": "strongly reduced prevalence"}, {"measurement": "reduction of oocyst prevalence relative to controls", "setting": "P. falciparum", "result": 63.9, "unit": "%"}]}, {"compound": "CC1(C)C(C=C(Cl)Cl)C1C(=O)OCc1cccc(Oc2ccccc2)c1", "note": "(stereo not shown) [permethrin]", "values": [{"measurement": "proportionate survival relative to controls", "setting": "An. gambiae females", "result": 0.055}, {"measurement": "LC50", "setting": "[1]", "result": 63, "unit": "μmol/m^2"}]}, {"compound": "CCCCCCCCCCCCC1=C(OC(C)=O)C(=O)c2ccccc2C1=O", "note": "[ACE, acequinocyl]", "values": [{"measurement": "proportionate survival relative to controls", "setting": "An. gambiae females", "result": 1.059}, {"measurement": "effect on prevalence of P. falciparum relative to controls", "setting": "P. falciparum", "result": "strongly reduced prevalence"}, {"measurement": "reduction of oocyst prevalence relative to controls", "setting": "P. falciparum", "result": 64.3, "unit": "%"}]}, {"compound": "O=C1C(O)=C([C@H]2CC[C@H](c3ccc(Cl)cc3)CC2)C(=O)c2ccccc21", "note": "[ATQ, atovaquone]", "values": [{"measurement": "proportionate survival relative to controls", "setting": "An. gambiae females", "result": 0.975}, {"measurement": "effect on acute or long-term survival of An. gambiae females", "setting": "An. gambiae females; ATQ- vs control-exposed females, followed until death", "result": "no effect"}, {"measurement": "inhibition of intensity of infection compared to controls", "setting": "P. falciparum; [2]", "result": 87.5, "unit": "%"}, {"measurement": "inhibition of prevalence of infection compared to controls", "setting": "P. falciparum; [2]", "result": 87.6, "unit": "%"}, {"measurement": "oocyst intensity", "setting": "P. falciparum; 100 μmol/m2, 6 min exposure", "result": 0, "unit": "%"}, {"measurement": "prevalence of infection (P. falciparum oocysts)", "setting": "P. falciparum; 100 μmol/m2, 6 min exposure", "result": 0, "unit": "%"}, {"measurement": "oocyst intensity", "setting": "P. falciparum; 1 mmol/m2, 6 min exposure", "result": 0, "unit": "%"}, {"measurement": "prevalence of infection (P. falciparum oocysts)", "setting": "P. falciparum; 1 mmol/m2, 6 min exposure", "result": 0, "unit": "%"}, {"measurement": "oocyst intensity", "setting": "P. falciparum; [3]", "result": 0, "unit": "%"}, {"measurement": "prevalence of infection (P. falciparum oocysts)", "setting": "P. falciparum; [3]", "result": 0, "unit": "%"}, {"measurement": "IC50 of pre-infection exposure (surface concentration; prevalence of infection)", "setting": "P. falciparum; 60 minutes tarsal exposure, interpolated from dose-response curve", "result": 1.77, "unit": "μmol/m^2"}]}, {"compound": "CCc1nc(N)nc(N)c1-c1ccc(Cl)cc1", "note": "[PYR, pyrimethamine]", "values": [{"measurement": "proportionate survival relative to controls", "setting": "An. gambiae females", "result": 1.000}]}, {"compound": "CCCCCCCCCCOc1cc2c(O)c(C(=O)OCC)cnc2cc1OCC", "note": "[DEC, decoquinate]", "values": [{"measurement": "proportionate survival relative to controls", "setting": "An. gambiae females", "result": 1.084}, {"measurement": "effect on prevalence of P. falciparum relative to controls", "setting": "P. falciparum", "result": "no detectable effect on infection; also recorded: Neither compound is capable of reducing the prevalence"}]}]}
